The text below walks through data of ChEMBL document CHEMBL1201862, “PubChem BioAssay data set” (2004).

In test [1] the test system is P388/ADR. Nature of the test: cells. The format is functional. As to conditions: Mus musculus.
In test [2] the test system is SN12K1. The experiment in a line: cells. The format is functional. Particulars: Homo sapiens.
The subject of test [3] is P388. The experiment in a line: cells. The format is functional. Particulars: Mus musculus.
A short description of test [4]: cells. The format is functional.
A short description of test [5]: inhibitors of SNCA 5'UTR-driven reporter translation, confirmation, H4 neuroglioma cells, luminescence (AID 1988). The format is functional, cell-based.
The nature of test [6]: inhibitors of firefly luciferase expression or activity, dose response, H4 neuroglioma cells, luminescence (AID 1990). The format is functional, cell-based.
Test [7] is described as follows: Luminescence Cell-Based Dose Response HTS to Identify Inhibitors of 5'UTR Stem-Loop Driven Prion Protein mRNA Translation in H4 Neuroglioblastoma Cells. [Related pubchem assays: 1827 (Project Summary), 1813 (Primary HTS)]. The format is functional.
Test [8] concerns H9c2. The experiment in a line: cells. The format is functional, cell-based. Particulars: Rattus norvegicus, H9c2, Myocardium.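 Further: confirmatory concentration-response retest of ultra-high-throughput screening hits for modulation of myocardial damage; cell death induced by hydrogen peroxide oxidative stress; compound pretreatment for 60 min then peroxide exposure for 2 h; potency is for protecting the cells against peroxide damage rather than for killing them.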
The target in test [9] is Paired box protein Pax-8 (Homo sapiens, UniProt Q06710). Nature of the test: inhibitors of PAX8-driven TPO luciferase reporter, dose response, RMG-I cells, cherry-pick (AID 687027).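 Further: luciferase reporter driven by Pax8 target thyroperoxidase promoter measured by SteadyGlo luminescence.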 The format is functional, cell-based.
Paired box protein Pax-8, sequence (Q06710 whole entry): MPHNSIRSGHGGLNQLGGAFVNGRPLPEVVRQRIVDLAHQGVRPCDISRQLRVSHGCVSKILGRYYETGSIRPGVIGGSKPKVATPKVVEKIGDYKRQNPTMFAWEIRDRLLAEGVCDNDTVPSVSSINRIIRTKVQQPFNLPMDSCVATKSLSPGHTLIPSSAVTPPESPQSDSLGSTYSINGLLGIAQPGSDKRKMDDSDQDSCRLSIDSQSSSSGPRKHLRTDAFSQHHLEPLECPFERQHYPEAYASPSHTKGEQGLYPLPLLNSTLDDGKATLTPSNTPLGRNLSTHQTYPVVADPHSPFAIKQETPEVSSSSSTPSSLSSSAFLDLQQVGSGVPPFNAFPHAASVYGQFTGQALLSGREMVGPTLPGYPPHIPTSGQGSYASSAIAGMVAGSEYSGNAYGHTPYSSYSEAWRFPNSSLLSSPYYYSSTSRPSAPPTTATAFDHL
For test [10], the target named is T1, Ubiquitin-conjugating enzyme E2 N (Homo sapiens, UniProt P61088).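 Further: Dose-response confirmation in a TR-FRET assay detecting UBC13-driven polyubiquitin chain formation, inhibition measured.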
T1 sequence (P61088 whole entry): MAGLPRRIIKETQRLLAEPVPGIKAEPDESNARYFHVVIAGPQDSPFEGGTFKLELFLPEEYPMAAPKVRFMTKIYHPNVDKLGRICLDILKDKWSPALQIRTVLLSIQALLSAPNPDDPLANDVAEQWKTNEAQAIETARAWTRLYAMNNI
The format is functional.

A short description of test [11]: cells. The format is functional, cell-based.
In test [12] the test system is Streptococcus sp. 'group A'. The experiment in a line: growth inhibition of control SK(-) GAS strain, dose response, counter-screen for streptokinase expression inhibitor project, luminescence, kanamycin, BacTiterGlo, confirmation (AID 1900). The format is functional, organism-based.
The target in test [13] is T2, Streptokinase A (Streptococcus pyogenes serotype M1, UniProt P10520).
T2 sequence (P10520 whole entry): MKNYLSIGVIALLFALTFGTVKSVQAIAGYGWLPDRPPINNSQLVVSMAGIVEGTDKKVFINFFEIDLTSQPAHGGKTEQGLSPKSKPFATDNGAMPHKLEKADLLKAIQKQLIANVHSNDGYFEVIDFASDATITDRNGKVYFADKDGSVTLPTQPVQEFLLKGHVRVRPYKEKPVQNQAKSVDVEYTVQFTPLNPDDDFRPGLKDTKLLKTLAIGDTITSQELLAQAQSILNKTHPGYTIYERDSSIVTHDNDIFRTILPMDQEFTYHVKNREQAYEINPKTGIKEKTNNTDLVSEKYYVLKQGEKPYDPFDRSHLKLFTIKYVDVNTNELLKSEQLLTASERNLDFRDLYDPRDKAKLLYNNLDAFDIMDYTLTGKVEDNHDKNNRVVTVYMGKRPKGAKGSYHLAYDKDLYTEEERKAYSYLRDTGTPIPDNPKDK
The experiment in a line: S. pyogenes streptokinase expression inhibitors, potency, dose response, plasminogen activation absorbance, OD405 (AID 1914).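 Further: secreted streptokinase activity via plasminogen activation per viability signal from cell pellet.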 The format is functional, Streptococcus pyogenes M1 GAS.

Test [14] can be described thus: cells. The format is functional, cell-based. The source holds these as a separate data set.
The subject of test [15] is INS1. Nature of the test: beta cell apoptosis inhibitors, cytokine rescue, dose response, luminescence, retest (AID 449756).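 Further: cell death triggered by IL-1 beta plus TNF-alpha plus IFN-gamma mixture; protective hits raise ATP signal compared with cytokine alone wells.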 The format is functional, cell-based. Particulars: Rattus norvegicus.
Test [16] deals with Streptococcus. The experiment in a line: Group A Streptococcus viability loss, dose response, counter-screen for streptokinase expression inhibitor project, luminescence, BacTiterGlo (AID 1915).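 Further: potency for reduction of bacterial viability or growth.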 The format is functional, organism-based.
Test [17] in a line: NIH-3T3 fibroblast cytotoxicity, dose response, cytotoxicity control, cell-based, fluorescence, Alamar Blue, secondary assay (AID 2327).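 Further: NIH-3T3 mouse fibroblasts cultured with fluconazole at 8 µg/mL.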 The format is functional.
The nature of test [18]: C. albicans growth with fluconazole, confirmation, fluorescence, retest (AID 2467). The format is functional, cell-based.
The test system of test [19] is Vero. The experiment in a line: cells. The format is functional. Particulars: Chlorocebus sabaeus.

Each structure is given as a SMILES string. Active and inactive are the calls of the source.

As for `O=NN(CCCl)C(=O)Nc1ccc(Cl)c(Cl)c1`, the GI50 in test [1] was 65 µM (inactive); in test [2] it was 84.9 µM (inactive); in test [3], 49.1 µM (inactive).

As to `O=C(N/N=C/c1cccs1)c1cncc(Br)c1`, the IC50 in test [4] was 10.7 µM (active).

Turning to `CC(=O)c1c(C)oc2ccc(N(C(C)=O)S(=O)(=O)c3ccc(Cl)c([N+](=O)[O-])c3)cc12`, the concentration giving a half-maximal response (EC50) in [5] was 7.59 µM (active); in [6] it was 7.87 µM (active); in test [7], 8.95 µM (active).

For `Cc1cccnc1NC(=O)c1c(O)c2ccccc2n(C)c1=O`, the concentration for half-maximal inhibition (IC50) in test [4] was 25 µM (active).

With `Nc1ncnc2c1nnn2C1OC(CO)C(O)C1O` (stereo not drawn), the GI50 is 8.43 µM (inactive) in test [1], 1.71 µM (inactive) in [2] and 3.42 µM (inactive) in test [3].

As to `O=C(c1cc2ccccc2o1)N1CCN(Cc2ccccc2)CC1`, in test [4], the half-maximal inhibitory concentration (IC50) is 18.8 µM (active).

As to `CCCCn1c(N2CCCC2)nc2c1c(=O)[nH]c(=O)n2C`, the EC50 in [5], in test [6] and in [7] was > 120 µM (not active) in each case.

Turning to `CCN1C(=O)/C(=C/c2nc(O)c3ccccc3n2)c2ccccc21`, the IC50 in [8] is > 79 µM (inactive).

Take `O=S(=O)(Nc1cccc(-c2cn3cccnc3n2)c1)c1ccc(Cl)cc1`: the AC50 in test [9] was 43.5 µM (active).

With `C/C(=N\NC(=[Se])N(C)C)c1ccccn1`, the GI50 in test [1], in [2] and in test [3] was < 0.01 µM (active) throughout.

In the case of `O=c1cc(-c2cccnc2)oc2c1ccc1ccccc12`, the IC50 in test [8] is > 79 µM (inactive).

`[N-]=[N+]=CC(=O)CCC(N)C(=O)O` (stereo not drawn): the GI50 in test [1] is 0.112 µM (active); in test [2] it was 0.871 µM (active); in test [3], 0.0991 µM (active).

On to `CCOC(=O)CN1CCS/C1=N/C#N`, for which the GI50 in test [1], in test [2] and in test [3] was > 100 µM (inactive) each time.

As to `CCNC(=O)C(C)C1CCC2(C)C=CC(=O)C(C)=C2C1O` (stereo not drawn), the GI50 in test [1], in test [2] and in test [3] was > 100 µM (inactive) each time.

Regarding `CC(=O)NC(c1cccs1)c1cc(Cl)c2ccccc2c1O` (stereo not drawn), the IC50 in [10] is > 20 µM (inactive).

With `CC[C@]12C=CCN3CC[C@@]4(c5ccc(OC)cc5N(C)[C@H]4[C@@](O)(C(=O)OC)[C@@H]1OC(C)=O)[C@@H]32`, the GI50 in test [1] was 95.3 µM (inactive); in test [2], 193 µM (inactive); in [3] it was 14.5 µM (inactive).

In the case of `O=C1OC2CC=CC1C2` (stereo not drawn), the GI50 in [1], in [2] and in [3] was > 100 µM (inactive) in each case.

Turning to `COc1ccc(NCc2nnc(O)c3ccccc23)cc1`, in test [8], the IC50 is > 79 µM (inactive).

On to `Cn1c(=O)[nH]c(=O)c2c1nc(Br)n2CC(O)COc1ccc(Cl)cc1` (stereo not drawn), for which, in test [8], the IC50 is > 79 µM (inactive).

In the case of `CC(C)[C@](O)(C(=O)OCC1CC[N+]2([O-])CC[C@@H](O)C12)[C@H](C)O` (stereo partly drawn), the GI50 was > 375 µM (inactive) in test [1], > 375 µM (inactive) in [2] and > 364 µM (inactive) in test [3].

`Cc1cc(C)nc(N/N=C/c2cc(Br)ccc2O)n1`: the EC50 in test [11] was 7.66 µM (active); in [12], 8.51 µM (active); in [13] it was > 150 µM (not active); in test [14], > 350 µM (not active); in [16] it was 146 µM (active). The concentration at half-maximal activity (AC50) in [15] is 3.35 µM (active).

`O=C(O)c1ccc(NS(=O)(=O)/C=C/c2ccccc2)cc1O`: the IC50 in test [4] is 16.6 µM (active).

For `COc1cccc2c1[C@H]1CO[C@H]3C4C[C@H](C(=O)O)C([C@@H](C2)N13)N4C` (stereo partly drawn), the GI50 in test [1] is 0.0906 µM (active); in test [2], 0.483 µM (active); in test [3] it was 1.08 µM (active).

Consider `COc1cc(C(=O)N/N=C/C2CC=CCC2)cc(OC)c1OC` (stereo not drawn), for which the EC50 in [5], in [6] and in [7] was > 120 µM (not active) throughout.

For `O=C(NCCCCCCNC(=O)n1cc(F)c(=O)[nH]c1=O)NCCCOCCOCCOCCOCCOCCOCCOCCOCCOCCOCCOCCOCCOCCOCCOCCOCCOCCOCCOCCOCCOCCCNC(=O)C(O)C(O)C(O)C(O)CO` (stereo not drawn), the GI50 in test [1] was 0.492 µM (active); in test [2] it was 6.15 µM (inactive); in test [3] it was 0.879 µM (active).

With `CC1=CC(O)C(O)C2(C)C1CC1OC(=O)C(O)C3C(C)C(O)C4(O)OCC13C42` (stereo not drawn), the GI50 in test [1] was > 625 µM (inactive); in [2], 3.63 µM (inactive); in test [3], > 29 µM (inactive).

On to `CO[C@H]1[C@@H](O)[C@@H](O)O[C@@H](O[C@H]2CC[C@@]3(C)[C@H](CC[C@@H]4[C@@H]3[C@H](O)C[C@]3(C)[C@@H](C5=CC(=O)OC5)CC[C@]43O)C2)[C@@H]1O`, for which the AC50 in test [9] is 0.809 µM (active).

Take `O=C(Nc1ccccn1)c1cc(-c2cccnc2)nc2ccc(Br)cc12`: the results for the 50% effective concentration (EC50) in test [5], in [6] and in test [7] were 8.63 µM (active), 10.9 µM (active) and 13.5 µM (active), respectively.

As for `COc1ccc(/C=N/NC(=O)c2cccnc2)cc1CN1CCc2ccccc2C1`, the half-maximal inhibitory concentration (IC50) in test [8] was 10.6 µM (active).

Take `O=C(CN1C(=O)COc2ccccc21)NCCCN1CCc2ccccc2C1`: the EC50 in test [17] is > 150 µM (inactive); in test [18], > 38 µM (not active).

As to `COc1ccc(C(=O)Nc2ccc[n+](-c3nc4ccccc4nc3[N-]S(=O)(=O)c3ccccc3)c2)cc1`, the concentration giving a half-maximal response (EC50) in test [5], in test [6] and in [7] was > 120 µM (not active) in each case.

Take `CCOC(=O)N1CCC(NC(=O)c2cc3c(-c4ccccc4F)nn(C)c3s2)CC1`: the 50% inhibitory concentration (IC50) in test [8] was 10.6 µM (active).

Consider `COc1cc2[nH]c(Cl)c([N+](=O)[O-])c2cc1OC`, for which the IC50 in [4] was 23.1 µM (active).

As to `CCc1ccccc1N=C(S)N1CCCCCC1`, the results for the concentration giving a half-maximal response (EC50) in [17] and in test [18] were 42.1 µM (active) and > 38 µM (not active), respectively.

On to `Oc1nnc(Cc2ccccn2)c2ccccc12`, for which, in [8], the IC50 is 39.4 µM (inactive).

Consider `O=c1cc(CSc2ccc([N+](=O)[O-])cc2)nc2sccn12`, for which the IC50 in test [8] was > 79 µM (inactive).

Consider `CCOc1ncccc1C(=O)Nc1cccc(-c2nc3cccnc3s2)c1`, for which the IC50 in test [8] is > 79 µM (inactive).

In the case of `CN(CCc1cn[nH]c1)Cc1nc(C(c2ccccc2)c2ccccc2)no1`, the AC50 in test [9] was 65 µM (active).

On to `O=C1c2ccccc2NC(c2cnc3ccccc3n2)N1O` (stereo not drawn), for which the EC50 in test [17] is > 160 µM (inactive); in [18] it was > 38 µM (not active).

Take `CSc1nc2ccc(S(=O)(=O)Nc3c(C)n(C)n(-c4ccccc4)c3=O)cc2s1`: in test [8], the IC50 is > 79 µM (inactive).

In the case of `CCOC(=O)COc1ccc2c(=O)c(-c3ccccc3OC)coc2c1`, the IC50 in test [4] is 1.45 µM (active).

Turning to `CCNc1nc(SCc2ccccc2)nc(N2CCOCC2)n1`, the EC50 is 16.8 µM (active) in [5], 13.1 µM (active) in [6] and > 120 µM (not active) in test [7].

For `COc1ccc(C(=O)Nc2ccccc2N2CCOCC2)cc1[N+](=O)[O-]`, the EC50 in test [5], in [6] and in [7] was > 120 µM (not active) in each case.

As for `CN(C(=O)CCN1C(=O)/C(=C/c2ccc(F)cc2)SC1=S)C1CCS(=O)(=O)C1` (stereo not drawn), the 50% cytotoxic concentration (CC50) in test [19] was > 25 µM (active).

As for `CCCCn1c(=O)[nH]c(=O)c2c1nc(-c1ccc(OC(F)F)c(OC)c1)n2C`, the half-maximal effective concentration (EC50) is > 120 µM (not active) in test [5], 24.6 µM (active) in test [6] and > 120 µM (not active) in [7].
